Experiments:
Format in all cases: in vivo, C57BL/6J mice
[1] = tested on: ACC1 (Acetyl-CoA carboxylase 1, 107476); assay: Hepatic mRNA expression, real-time quantitative PCR: ACC1; settings: FIG. 6, liver, HFD+5% w/w in diet, 16 weeks
Protocol: (§1) First, 4-week-old male C57BL/6J mice (60 total) were purchased from Jackson Laboratory. The animals were acclimated to the vivarium in a thermo-hygrostat (20-23° C., 45-65%) under a 12 h light/dark cycle and fed a pelletized commercial non-purified diet for 1 week after arrival. The mice were then randomly divided into 6 groups (n=10) and fed the respective experimental diets for 16 weeks: normal diet group (ND, American Institute of Nutrition (AIN)-76 semi-synthetic diet), high-fat diet group (HFD, 20% fat+1% cholesterol based on AIN-76 diet), PSI group (HFD+5% D-psicose, w/w, Sigma Chemical Company), ERY group (HFD+5% erythritol, w/w, Sigma Chemical Company), GLU group (HFD+5% D-glucose, w/w, Sigma Chemical Company), and FRU group (HFD+5% D-fructose, w/w, Sigma Chemical Company). All high-fat diet-fed groups were allowed to ingest the same calories by pair feeding based on the PSI group. The mice had ad libitum access to distilled water during the experimental period. Their feed intakes and body weights were measured daily and biweekly, respectively. The organ weights and the adipose tissue weights of the mice were measured after sacrificing the animals.
(§2) Samples were prepared and analyzed as previously described. Specifically, total RNA was synthesized into cDNA using a QuantiTect Reverse Transcription kit (QIAGEN Gmb1h, Hilden, Germany). RNA expression was quantified with real-time quantitative PCR using a QuantiTect SYBR Green PCR kit (QIAGEN Gmb1h, Hilden, Germany). Primers were designed to detect FAS (fatty acid synthase, 14101), ACC1 (Acetyl-CoA carboxylase 1, 107476), CPT1α (Carnitine palmitoyltransferase 1α, 12894), and CPT2 (Carnitine palmitoyltransferase 2, 12896). GAPDH was used as an internal transcription marker. The reaction was performed a total of 40 cycles (each consisting of 15 sec at 94° C., 30 sec at 58° C., 30 sec at 72° C., and 15 sec at 65° C.). Fluorescence signals were monitored every cycle and the resulting threshold cycles (Ct) were analyzed. mRNA expression in each experimental group was quantified using a CFX96 Real time system (Bio-rad, USA).

[2] = tested on: CD36 (cluster of differentiation 36, 12491); assay: Small intestine mRNA expression, real-time quantitative PCR: CD36; settings: FIG. 8, HFD+5% w/w in diet, 16 weeks
Protocol: as §1
as §2, with “CD36 (cluster of differentiation 36, 12491), ApoB48 (apolipoprotein B 48, 238055), FATP4” for “FAS”, “transporter 4, 26569), ABCG5 (ATP-binding cassette sub-family G member5, 27409),” for “synthase, 14101), ACC1 (Acetyl-CoA carboxylase 1, 107476), CPT1α (Carnitine palmitoyltransferase 1α, 12894),”, “ABCG8 (ATP-binding cassette sub-family G member8, 67470).” for “CPT2 (Carnitine palmitoyltransferase 2, 12896).”

[3] = tested on: Fatty acid β-oxidation; assay: Hepatic fatty acid β-oxidation activity; settings: FIG. 4B, liver, HFD+5% w/w in diet, 16 weeks
Protocol: as §1, with “animals. Samples were prepared and analyzed according to the method developed by Hulcher and Oleson. Specifically, the activity of fatty acid synthase (FAS) as a hepatic lipid regulating enzyme was measured by spectrophotometric assay according to the method described by Nepokroeff et al. Each sample was mixed with 100 μl of cytoplasmic fraction and the mixture was allowed to react at 30° C. for 2 min. A reduction in absorbance at 340 nm was measured. Fatty acid synthase (FAS) activity units were expressed as nanomoles (nmol) of NADPH oxidized for 1 min per mg of cytoplasmic fraction. Fatty acid β-oxidation activity was measured by monitoring the reduction of NAD^+ to NADH in the presence of palmitoyl-CoA, as described by Lazarow. β-oxidation activity units were expressed as nanomoles (nmol) of NADH produced for 1 min per mg of mitochondrial protein.” for “animals.”

[4] = tested on: high-fat diet-induced obese mice; assay: Hepatic tissue morphologies (H&E); settings: FIG. 4C, 200×, HFD+5% w/w in diet, 16 weeks
Protocol: as §1
(§3) Liver tissues were removed from the mice in the normal diet group (ND) and high-fat diet groups (HFD, ERY, GLU, FRU, and PSI) and fixed in a buffer solution of 10% formalin. The fixed liver tissues were embedded in paraffin. […] sections were prepared from the liver tissues and their cross-sections were dyed with hematoxylin and eosin. Stained areas were observed using an optical microscope at a magnification of 200× (Nikon, Tokyo, Japan).

[5] = tested on: high-fat diet-induced obese mice; assay: Adipose tissue morphologies (epididymal WAT, H&E); settings: FIG. 5B, 200×, HFD+5% w/w in diet, 16 weeks
Protocol: as §1
as §3, with “Epididymal WATs” for “Liver tissues”, “epididymal WATs” for “liver tissues”

With `O=C(CO)[C@@H](O)[C@H](O)[C@H](O)CO` [FRU, D-fructose] the “hepatic mRNA expression level of ACC1” value [1] was “significantly lower than those in the ND group”, the “mRNA expression level of CD36 in the small intestine” value (“mRNA expression level of CD36” for short) [2] was “significantly higher” and the “hepatic fatty acid β-oxidation activity” value [3] was “increased significantly compared to those in the ND group”. The “accumulation / size of adipocytes in the liver tissues” value (“accumulation / size of adipocytes” below) [4] was “more distinctly observed than in the liver tissues of the ND group” and the “size of adipocytes in the epididymal WATs” value [5] was “increase in the size of adipocytes”.

For `O=C[C@H](O)[C@@H](O)[C@H](O)[C@H](O)CO` [GLU, D-glucose], the “hepatic mRNA expression level of ACC1” value [1] was “significantly lower than those in the ND group”, the “mRNA expression level of CD36” value [2] was “significantly higher” and the “hepatic fatty acid β-oxidation activity” value [3] was “increased significantly compared to those in the ND group”. For the same molecule, the “accumulation / size of adipocytes” value [4] was “more distinctly observed than in the liver tissues of the ND group” and the “size of adipocytes in the epididymal WATs” value [5] was “increase in the size of adipocytes”.

`OC[C@@H](O)[C@@H](O)CO` [ERY, erythritol] was tested, and the “hepatic mRNA expression level of ACC1” value [1] was “significantly lower than those in the ND group”, the “mRNA expression level of CD36” value [2] was “significantly higher” and the “hepatic fatty acid β-oxidation activity” value [3] was “increased significantly compared to those in the ND group”. The “accumulation / size of adipocytes” value [4] was “more distinctly observed than in the liver tissues of the ND group” and the “size of adipocytes in the epididymal WATs” value [5] was “increase in the size of adipocytes”.

`O=C(CO)[C@H](O)[C@H](O)[C@H](O)CO` [PSI, D-psicose] was tested, and the “hepatic mRNA expression level of ACC1” value [1] was “much significantly lower than those in the ND group”, the “mRNA expression level of CD36” value [2] was “significantly lower in the PSI group than those in other high-fat diet groups” and the “mRNA expression level of CD36” value ([2]; listed as D-psicose) was “reduces mRNA expression”. For the same molecule, the “hepatic fatty acid β-oxidation activity” value [3] was “decreased significantly compared to those in other high-fat diet groups”, the “accumulation / size of adipocytes” value [4] was “smaller than that in the liver tissues of other high-fat diet groups” and the “size of adipocytes in the epididymal WATs” value [5] was “relatively small compared to that in the other high-fat diet groups”.

Reference: patent publication US20180243325A1, “METHOD FOR INHIBITING ABSORPTION OF AND/OR PROMOTING EXCRETION OF LIPIDS USING D-PSICOSE” (CJ CHEILJEDANG CORPORATION, priority 2015, published 2018)
